Measured values as given in PMC9127867, “Analysis of the β-Glucosidase Family Reveals Genes Involved in the Lignification of Stone Cells in Chinese White Pear (Pyrus bretschneideri Rehd.)” (Frontiers in Plant Science, 2022).

Target: T1, GST-PbBGLU1 (Pyrus x bretschneideri, UniProt Z9UO32JHD5)
T1 construct: full-length CDS in pGEX4T-1, N-terminal GST tag kept, E. coli BL21(DE3)
T1 sequence (Z9UO32JHD5 522-1019 limits assumed): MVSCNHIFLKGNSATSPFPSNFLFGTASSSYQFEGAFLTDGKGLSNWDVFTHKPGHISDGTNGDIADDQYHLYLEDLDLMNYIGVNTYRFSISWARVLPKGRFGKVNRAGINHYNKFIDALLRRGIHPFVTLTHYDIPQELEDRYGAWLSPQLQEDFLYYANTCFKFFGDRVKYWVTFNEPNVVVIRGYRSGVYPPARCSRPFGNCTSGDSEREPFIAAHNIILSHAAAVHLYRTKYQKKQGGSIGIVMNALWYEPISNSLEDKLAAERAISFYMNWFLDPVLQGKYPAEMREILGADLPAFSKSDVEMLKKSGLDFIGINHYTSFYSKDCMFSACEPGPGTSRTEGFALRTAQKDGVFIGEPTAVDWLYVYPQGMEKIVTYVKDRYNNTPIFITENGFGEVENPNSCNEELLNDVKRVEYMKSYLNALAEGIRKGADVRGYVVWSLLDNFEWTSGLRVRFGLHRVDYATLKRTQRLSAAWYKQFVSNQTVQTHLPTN
Assay: HPLC of product, double reciprocal plot
Assay type: biochemical
Conditions: 35 °C, PBS pH 7.2–7.4, 50 mM MgSO4, 200 mM KCl, 0.1% β-mercaptoethanol
Description: HPLC of product, double reciprocal plot on GST-PbBGLU1

Structure (SMILES)	Km
COc1cc(/C=C/CO)ccc1O[C@@H]1O[C@H](CO)[C@@H](O)[C@H](O)[C@H]1O [coniferin]	103 ± 3.89 µM
COc1cc(/C=C/CO)cc(OC)c1O[C@@H]1O[C@H](CO)[C@@H](O)[C@H](O)[C@H]1O [syringin]	101 ± 6.51 µM
